The text below walks through data of ChEMBL document CHEMBL5393444, “Sulfonamide derivatives as ctps1 inhibitors” (2022).

For the first experiment, the target named is T1, CTP synthase 1 (Homo sapiens, UniProt P17812).
T1 sequence (P17812 whole entry): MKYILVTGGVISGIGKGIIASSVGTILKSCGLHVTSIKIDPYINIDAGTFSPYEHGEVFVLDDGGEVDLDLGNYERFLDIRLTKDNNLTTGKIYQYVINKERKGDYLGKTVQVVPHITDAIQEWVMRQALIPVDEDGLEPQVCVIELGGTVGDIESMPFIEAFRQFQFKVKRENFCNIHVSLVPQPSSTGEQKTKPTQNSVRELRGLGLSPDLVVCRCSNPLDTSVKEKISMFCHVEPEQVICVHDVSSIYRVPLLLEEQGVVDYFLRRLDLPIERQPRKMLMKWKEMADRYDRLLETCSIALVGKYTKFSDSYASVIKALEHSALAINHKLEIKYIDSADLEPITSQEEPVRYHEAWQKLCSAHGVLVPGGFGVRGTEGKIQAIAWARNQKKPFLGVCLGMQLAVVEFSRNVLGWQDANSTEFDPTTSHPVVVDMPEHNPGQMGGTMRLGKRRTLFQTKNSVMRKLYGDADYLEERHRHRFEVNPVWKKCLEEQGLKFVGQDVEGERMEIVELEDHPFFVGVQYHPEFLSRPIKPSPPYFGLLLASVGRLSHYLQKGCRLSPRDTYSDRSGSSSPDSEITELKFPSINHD
In words: Inhibition of C-terminal FLAG-His8-tagged full length human CTPS1 preincubated for 10 mins followed by substrate addition by ADP-Glo assay.
As for `CCOc1cncc(-c2ccc(NC(=O)C3(c4ccnc(NS(=O)(=O)C5CC5)n4)CCC(O)CC3)nc2)n1` (stereo in doubt), the half-maximal inhibitory concentration (IC50) was ≤ 100 nM. Turning to `CCOc1cncc(-c2cc(F)c(NC(=O)C(C)(C)c3ccnc(NS(=O)(=O)C4CC4)n3)c(F)c2)n1`, the IC50 is ≤ 100 nM. Take `CCOc1cncc(-c2ccc(NC(=O)C(OC)c3cncc(NS(=O)(=O)C4CC4)n3)nc2)n1` (stereo unspecified): the half-inhibitory concentration (IC50) is ≤ 100 nM. On to `CCC(C(=O)Nc1ccc(-c2cncc(C3CC3)n2)cn1)c1ccnc(NS(=O)(=O)C2CC2)n1` (stereo unspecified), for which the half-maximal inhibitory concentration (IC50) was ≤ 100 nM. As to `CCOc1cncc(-c2ccc(NC(=O)C(C)(C)c3ccnc(NS(=O)(=O)C4CC4)n3)c(OC)c2)n1`, the IC50 was ≤ 100 nM. For `CCS(=O)(=O)Nc1nccc(C(C)(C)C(=O)Nc2ccc(-c3cncc(OC)n3)cc2F)n1`, the IC50 was ≤ 1000 nM. For the molecule `CCOc1cncc(-c2ccc(NC(=O)C3(c4cccc(NS(=O)(=O)C5CC5)n4)CCOCC3)nc2)n1`, the half-inhibitory concentration (IC50) is ≤ 100 nM. On to `CCC(C(=O)Nc1ccc(-c2cncc(OC(C)C)n2)cc1)c1ccnc(NS(=O)(=O)C2CC2)n1` (stereo unspecified), for which the IC50 was ≤ 100 nM. For `CCC(C(=O)Nc1ccc(-c2cncc(OC(C)C)n2)cc1F)c1ccnc(NS(=O)(=O)C2CC2)n1` (stereo unspecified), the IC50 is ≤ 100 nM.

Consider `CCOc1cncc(-c2ccc(NC(=O)C(C)(C)c3ccnc(NS(C)(=O)=O)n3)cc2)n1`, for which the IC50 was ≤ 100 nM. For the molecule `COc1cncc(-c2ccc(NC(=O)Cc3ccnc(NS(=O)(=O)C4CC4)n3)cc2)n1`, the IC50 is ≤ 100 nM. As to `CCOc1cncc(-c2ccc(NC(=O)C(F)(CC)c3cncc(NS(=O)(=O)C4CC4)n3)nc2)n1` (stereo in doubt; form 1), the IC50 is ≤ 100 nM.

Take `CCOc1cncc(-c2ccc(NC(=O)C(c3ccnc(NS(=O)(=O)C4CC4)n3)C(C)C)nc2)n1` (stereo unspecified): the half-inhibitory concentration (IC50) was ≤ 100 nM. As to `CCOc1cncc(-c2ccc(NC(=O)C(F)(CC)c3ccnc(NS(=O)(=O)C4CC4)n3)nc2)n1` (stereo in doubt; form 1) [listing 1 of 2 here], the IC50 is ≤ 100 nM. For `CC(C)(C(=O)Nc1ccc(-c2cncc(C(F)(F)F)n2)cc1)c1ccnc(NS(=O)(=O)C2CC2)n1`, the IC50 is ≤ 100 nM. Turning to `CCC(C(=O)Nc1ccc(-c2cncc(C3CC3)n2)cc1F)c1ccnc(NS(=O)(=O)C2CC2)n1` (stereo unspecified), the IC50 was ≤ 100 nM. On the same count and under the same terms, next, `CCOc1cncc(-c2ccc(NC(=O)C(C)(C)c3ccnc(NS(=O)(=O)C4CC4)n3)c(OC(F)(F)F)c2)n1`: ≤ 100 nM; `CCC(C(=O)Nc1ccc(-c2cncc(OCC(F)(F)F)n2)cn1)c1ccnc(NS(=O)(=O)C2CC2)n1` (stereo unspecified): ≤ 100 nM; `CCOc1cncc(-c2ccc(NC(=O)C(CC)c3nccc(NS(=O)(=O)C4CC4)n3)nc2)n1` (stereo unspecified): ≤ 100 nM. For `COc1cncc(-c2ccc(NC(=O)C(C)(C)c3ccnc(NS(=O)(=O)C4CC4)n3)cc2)n1`, the IC50 was ≤ 100 nM.

Turning to `CC(C)(C(=O)Nc1ccc(-c2cncc(C(F)(F)F)n2)cc1F)c1ccnc(NS(=O)(=O)C2CC2)n1`, the IC50 is ≤ 100 nM. For the molecule `CCOc1cncc(-c2ccc(NC(=O)C(CC)(CC)c3ccnc(NS(=O)(=O)C4CC4)n3)cc2)n1`, the IC50 is ≤ 100 nM. Turning to `O=C(Cc1ccnc(NS(=O)(=O)C2CC2)n1)Nc1ccc(-c2cncc(OCC(F)(F)F)n2)cc1`, the half-inhibitory concentration (IC50) is ≤ 100 nM.

With `O=C(Cc1ccnc(NS(=O)(=O)C2CC2)n1)Nc1ccc(-c2cncc(C(F)(F)F)n2)cc1`, the IC50 is ≤ 100 nM.

With `CCOc1cccc(-c2ccc(NC(=O)C(C)(C)c3ccnc(NS(=O)(=O)C4CC4)n3)cc2)c1`, the half-maximal inhibitory concentration (IC50) was 10000 nM. On to `CCOc1cncc(-c2ccc(NC(=O)C3(c4ccnc(NS(=O)(=O)C5CC5)n4)CC4(C3)OCCO4)nc2)n1`, for which the IC50 was ≤ 100 nM. Still for that read-out and setting: the value for `CCOc1cncc(-c2ccc(NC(=O)C3(c4ccnc(NS(=O)(=O)C5CC5)n4)CCC(OC)CC3)nc2)n1` (stereo unspecified) was ≤ 100 nM; that for `CCOc1cncc(-c2cnc(NC(=O)C(C)(C)c3ccnc(NS(=O)(=O)C4CC4)n3)c(F)c2)n1` was ≤ 100 nM; that for `CCC(F)(C(=O)Nc1ccc(-c2cncc(C3CC3)n2)cn1)c1ccnc(NS(=O)(=O)C2CC2)n1` (stereo unspecified) was ≤ 100 nM. Turning to `CC(C)Oc1cncc(-c2ccc(NC(=O)C(C)(C)c3ccnc(NS(=O)(=O)C4CC4)n3)cc2)n1`, the IC50 was ≤ 100 nM. Same read-out and setting: the value for `CCOc1cncc(-c2ccc(C(=O)NC(CC)c3cncc(NS(=O)(=O)C4CC4)n3)c(F)c2)n1` (stereo unspecified) was ≤ 100 nM; that for `CC(C)(C(=O)Nc1ccc(-c2cncc(OC(F)F)c2)cc1)c1ccnc(NS(=O)(=O)C2CC2)n1` was ≤ 100 nM. Consider `CCC(F)(C(=O)Nc1ccc(-c2cncc(Cl)c2)cn1)c1ccnc(NS(=O)(=O)C2CC2)n1` (stereo unspecified), for which the half-inhibitory concentration (IC50) is ≤ 100 nM. As for `COc1cncc(-c2ccc(NC(=O)Cc3cccc(NS(=O)(=O)C4CC4)n3)cc2)n1`, the IC50 is ≤ 100 nM. As for `CCOc1cncc(-c2ccc(NC(=O)C3(c4ccnc(NS(=O)(=O)C5CC5)n4)CCOCC3)cc2)n1`, the IC50 was ≤ 100 nM. Regarding `CCOc1cncc(-c2ccc(NC(=O)C(F)(c3ccnc(NS(=O)(=O)C4CC4)n3)C(C)C)nc2)n1` (stereo unspecified), the IC50 is ≤ 100 nM.

On to `CCOc1cncc(-c2ccc(NC(=O)C3(c4ccnc(NS(=O)(=O)C5(C#N)CC5)n4)CCOCC3)nc2)n1`, for which the IC50 is ≤ 100 nM. Still for that read-out and setting: the value for `CCOc1cncc(-c2ccc(NC(=O)C(C)(OC)c3cncc(NS(=O)(=O)C4CC4)n3)nc2)n1` (stereo unspecified) was ≤ 100 nM; that for `CCOc1cncc(-c2cnc(NC(=O)C(CCOC)c3ccnc(NS(=O)(=O)C4CC4)n3)c(F)c2)n1` (stereo unspecified) was ≤ 100 nM.

In the case of `Cc1ncc(-c2ccc(NC(=O)C(C)(C)c3ccnc(NS(C)(=O)=O)n3)c(C)c2)cn1`, the IC50 was ≥ 1000 nM. On to `CCC(C(=O)Nc1ccc(-c2cncc(Cl)c2)cn1)c1ccnc(NS(=O)(=O)C2CC2)n1` (stereo unspecified), for which the IC50 is ≤ 100 nM.

Regarding `CCC(NC(=O)c1ccc(-c2cncc(OC(C)C)n2)cc1)c1ccnc(NS(=O)(=O)C2CC2)n1` (stereo unspecified), the half-maximal inhibitory concentration (IC50) is ≤ 100 nM.

Take `CCOc1cncc(-c2ccc(NC(=O)C(OC)c3cncc(NS(=O)(=O)C4CC4)n3)cc2)n1` (stereo unspecified): the IC50 is ≤ 100 nM. For `O=C(Cc1ccnc(NS(=O)(=O)C2CC2)n1)Nc1ccc(-c2cncc(C(F)(F)F)n2)cc1F`, the half-maximal inhibitory concentration (IC50) is ≤ 100 nM. Take `CC(C)(C(=O)Nc1ccc(-c2cncc(OC3CC3)n2)cn1)c1ccnc(NS(=O)(=O)C2CC2)n1`: the IC50 is ≤ 100 nM. With `CCOc1cncc(-c2ccc(NC(=O)C(F)(F)c3ccnc(NS(=O)(=O)C4CC4)n3)c(F)c2)n1`, the half-inhibitory concentration (IC50) was ≤ 100 nM. Still for that read-out and setting: the value for `CCC(C(=O)Nc1ccc(-c2cncc(C(F)(F)F)n2)cc1F)c1ccnc(NS(=O)(=O)C2CC2)n1` (stereo unspecified) was ≤ 100 nM; that for `CCOc1cncc(-c2ccc(NC(=O)C(C)(C)c3ccnc(NS(=O)(=O)C4CC4)n3)c(Cl)c2)n1` was ≤ 100 nM; that for `CCOc1cncc(-c2ccc(NC(=O)C(c3ccnc(NS(=O)(=O)C4CC4)n3)C(C)C)c(F)c2)n1` (stereo unspecified) was ≤ 100 nM. With `CC(C)(C(=O)Nc1ccc(-c2cncc(C(F)(F)F)n2)cn1)c1ccnc(NS(=O)(=O)C2CC2)n1`, the IC50 was ≤ 100 nM. Regarding `CCC(C(=O)Nc1ccc(-c2cncc(OC)n2)cc1)c1ccnc(NS(=O)(=O)C2CC2)n1` (stereo unspecified), the IC50 was ≤ 100 nM. As to `CCOc1cncc(-c2ccc(NC(=O)C(C)(C)c3ccnc(NS(=O)(=O)C4CC4)n3)cn2)n1`, the half-maximal inhibitory concentration (IC50) is ≤ 100 nM. In the case of `CCOc1cncc(-c2ccc(NC(=O)C3(c4ccnc(NS(=O)(=O)C5CC5)n4)CCC(N(C)C)CC3)nc2)n1` (stereo in doubt; form 1), the IC50 was ≤ 100 nM.

The species entered for another experiment is Homo sapiens. In words: Selectivity ratio of IC50 for human CTPS2 to IC50 for human CTPS1 by RapidFire/MS analysis.
`CC(C)Oc1cncc(-c2ccc(C(=O)NC(C)(C)c3cncc(NS(=O)(=O)C4CC4)n3)c(F)c2)n1`: the Ratio IC50 was found to be 2.

With `CCOc1cncc(-c2ccc(NC(=O)C(F)(CC)c3ccnc(NS(=O)(=O)C4CC4)n3)nc2)n1` (stereo in doubt; form 1) [listing 2 of 2 here], the Ratio IC50 was 30.

For the molecule `CC(C)(C(=O)Nc1ccc(-c2cncc(C3CC3)n2)cc1F)c1ccnc(NS(=O)(=O)C2CC2)n1`, the Ratio IC50 was determined as 2.

As for `CCOc1cncc(-c2ccc(NC(=O)C3(c4ccnc(NS(=O)(=O)N(C)C)n4)CCOCC3)nc2)n1`, the Ratio IC50 is > 60.

With `CCOc1cncc(-c2ccc(NC(=O)C(F)(CC)c3cncc(NS(=O)(=O)C4CC4)n3)nc2)n1` (stereo in doubt; form 3), the Ratio IC50 is 2. On to `CCOc1cncc(-c2ccc(NC(=O)C(C)(C)c3ccnc(NS(C)(=O)=O)n3)nc2)n1`, for which the Ratio IC50 is 30. With `CCOc1cncc(-c2ccc(NC(=O)C(C)(C)c3nc(NS(=O)(=O)C4CC4)ncc3C)cc2)n1`, the Ratio IC50 came out at 2. `CC(C)(NC(=O)c1ccc(-c2cncc(C(F)(F)F)n2)cc1)c1cncc(NS(=O)(=O)C2CC2)n1`: the Ratio IC50 stood at 2. For `CCOc1cncc(-c2ccc(NC(=O)C3(c4ccnc(NS(=O)(=O)C5CC5)n4)CCC(N(C)C)CC3)nc2)n1` (stereo in doubt; form 2), the Ratio IC50 was > 60.

`CCOc1cncc(-c2ccc(NC(=O)C(C)(C)c3ccnc(NS(=O)(=O)CC)n3)cc2)n1`: the Ratio IC50 stood at 30. Same read-out and setting: the value for `CCOc1cncc(-c2ccc(NC(=O)C(F)(CC)c3ccnc(NS(=O)(=O)C4CC4)n3)nc2)n1` (stereo in doubt; form 3) was > 60; that for `CC(C)c1cncc(-c2ccc(NC(=O)C(C)(C)c3ccnc(NS(=O)(=O)C4CC4)n3)cc2)n1` was 30; that for `CCOc1cncc(-c2ccc(NC(=O)C(F)(CC)c3ccnc(NS(=O)(=O)C4CC4)n3)nc2)n1` (stereo in doubt; form 2) was 2.
